Data published in patent publication US10995068B2, “Synthetic sphingolipid-like molecules, drugs, methods of their synthesis and methods of treatment” (The Regents of the University of California, priority 2015, dated 2021).

How the values were obtained:
[1] = system: non-transformed and cancer cells; assay: Cytosolic vacuolation by SH-BC-893; format: cell-based; conditions: both non-transformed and cancer cells
From the text: Certain embodiments of the invention are directed to azacyclic constrained sphingolipid-like molecules to inhibit macropinocytosis and autophagy, consistent with the bioenergetic mechanism. This aspect of the mechanism was unexpected because it was initially believed in that these molecules would only reduce nutrient transporter surface expression. However, considering that Ras activation increases macropinocytosis and autophagy, and the finding that SH-BC-893 was very effective against neoplastic cells with activated Ras led to the hypothesis that azacyclic constrained sphingolipid-like molecules might also affect macropinocytosis and autophagy pathways. […]
Light Microscopy: Brightfield and epifluorescence microscopy were conducted using a Nikon TE2000-S fluorescence microscope; confocal microscopy was performed on a Zeiss LSM780 confocal microscope or Nikon Eclipse Ti spinning disk confocal microscope. […] Co-localization was determined using JACoP plugin in ImageJ software. Macropinocytosis was measured after 16 h incubation in serum-free DMEM. p53−/−; LSL-K-RasG12D MEFs before (LSL) or after (KRasG12D) introduction of Cre were serum starved for 16 h and then treated with macropinocytosis inhibitor 5-(N-ethyl-N-isopropyl) amiloride (EIPA, 75 μM) for 1 h or SH-BC-893 for 6 h. […]

[2] = system: normal human peripheral blood mononuclear cells (PBMC); assay: Colony formation assay, PBMC; format: cell-based
Description: The difference in sensitivity stems from the inability of neoplastic cells to adapt to decreases of metabolism.
Cell analysis: Viability and 4F2hc expression are determined by vital dye exclusion and flow cytometry. Oxygen consumption is measured with an XF24 Extracellular Flux Analyzer (Seahorse Bioscience); values are normalized to total protein. Confocal microscopy is performed on either a Zeiss LSM780 or a Nikon Eclipse Ti; vacuolation was monitored using a Nikon TE2000-S equipped with DIC filters. Anchorage-independent growth of SW620 cells is measured in DMEM-10 containing 0.35% agarose with a 0.5% agarose bottom layer. PBMNCs are obtained from the normal blood donor program run by the CTSA-supported Institute for Clinical and Translational Science at UCI under IRB protocols 2015-1883 (Edinger) and 2001-2058 (ICTS). […] Plates were incubated at 37° C. in a humidified atmosphere containing 5% CO2 and colonies were counted after 12 days.
Cell culture and reagents. […] Cell viability was measured by vital dye exclusion using either propidium iodide or DAPI at 1 μg/ml. Analysis of cell surface 4F2hc levels with PE-conjugated anti-CD98 was restricted to viable cells as determined by DAPI exclusion. Anchorage-independent growth of SW620 cells was measured in DMEM-10 containing 0.35% low melt agarose with a 0.5% agarose bottom layer. […]

SMILES: CCCCCCCCc1ccc([C@H]2CCN[C@@H]2CO)cc1.Cl [Compound 5, (2S,3R)-2-(hydroxymethyl)-3-(4-octylphenyl)Pyrrolidinium chloride]
- cytosolic vacuolation [1]: induced equally striking cytosolic vacuolation
- sensitivity in colony formation assays [2]: resistant
